# Data taken from ChEMBL document CHEMBL1131332, “(-)-6-Chloro-2-[(1-furo[2, 3-c]pyridin-5-ylethyl)thio]-4-pyrimidinamine, PNU-142721, a new broad spectrum HIV-1 non-nucleoside reverse transcriptase inhibitor” (J Med Chem, 1998).
# What was measured:
# [1] = system: Human immunodeficiency virus 1; assay: In vitro antiviral activity against NNRTI-resistant DLVR-MF (P236L) HIV-1 variant; assay type: functional, organism-based; conditions: Human immunodeficiency virus 1, IIIB
# [2] = system: Human immunodeficiency virus 1; assay: In vitro antiviral activity against NNRTI-resistant L-697661R-IIIB (Y181C) HIV-1 variant; assay type: functional, organism-based; conditions: Human immunodeficiency virus 1, IIIB
# [3] = system: Human immunodeficiency virus 1; assay: Inhibition of p24 production in NNRTI-resistant DLVR-MF (P236L) HIV-1 variant at concentration 0.01 um; assay type: functional
# [4] = target: Human immunodeficiency virus type 1 reverse transcriptase (Human immunodeficiency virus 1, UniProt Q72547, P236L); assay: Inhibitory activity against P236L mutant HIV-1 reverse transcriptase
# [5] = system: Human immunodeficiency virus 1; assay: Inhibition of p24 production in NNRTI-resistant L-697661R-IIIB (Y181C) HIV-1 variant at concentration 3 um; assay type: functional
# [6] = target: Human immunodeficiency virus type 1 reverse transcriptase (Human immunodeficiency virus 1, UniProt Q72547); assay: Inhibitory activity against wild type HIV-1 reverse transcriptase (WT-RT)
# [7] = target: Human immunodeficiency virus type 1 reverse transcriptase (Human immunodeficiency virus 1, UniProt Q72547, Y181C); assay: Inhibitory activity against Y181C mutant HIV-1 reverse transcriptase
# [8] = Apparent terminal disposition half-life (t1/2 ) was evaluated in Spargue-Dawley rat when given intravenously at dose 15 mg/kg; assay type: ADME, organism-based; set-up: dose 15 mg/kg, route intravenous; conditions: Sprague-Dawley, in vivo, iv
# [9] = Pharmacokinetic parameter (tmax ) was evaluated in Spargue-Dawley rat when given intravenously at dose 15 mg/kg; assay type: ADME, organism-based; set-up: dose 15 mg/kg, route intravenous; conditions: Sprague-Dawley, in vivo, iv
# [10] = system: Human immunodeficiency virus 1; assay: In vitro antiviral activity against NNRTI-resistant DLVR-IIIB (L100I) HIV-1 variant; assay type: functional, organism-based; conditions: Human immunodeficiency virus 1, IIIB
# [11] = target: Human immunodeficiency virus type 1 reverse transcriptase (Human immunodeficiency virus 1, UniProt Q72547, E233V); assay: Inhibitory activity against E233V mutant HIV-1 reverse transcriptase
# [12] = Apparent terminal disposition half-life (t1/2 ) was evaluated in Spargue-Dawley rat when given peroral at dose 30 mg/kg; assay type: ADME, organism-based; set-up: dose 30 mg/kg, route oral; conditions: Sprague-Dawley, in vivo, po
# [13] = Pharmacokinetic parameter (Absolute oral bioavailability) was evaluated in Spargue-Dawley rat when given peroral at dose 80 mg/kg; assay type: ADME, organism-based; conditions: Sprague-Dawley, in vivo
# [14] = target: Human immunodeficiency virus type 1 reverse transcriptase (Human immunodeficiency virus 1, UniProt Q72547, L100I); assay: Inhibitory activity against L100I mutant HIV-1 reverse transcriptase
# [15] = system: Human immunodeficiency virus 1; assay: In vitro antiviral activity against NNRTI-resistant IIIB (WT) HIV-1 variant; assay type: functional, organism-based; conditions: Human immunodeficiency virus 1, IIIB
# [16] = Pharmacokinetic parameter (Cmax ) was evaluated in Spargue-Dawley rat when given intravenously at dose 15 mg/kg; assay type: ADME, organism-based; set-up: dose 15 mg/kg, route intravenous; conditions: Sprague-Dawley, in vivo, iv
# [17] = system: Human immunodeficiency virus 1; assay: In vitro antiviral activity against NNRTI-resistant R88703R-IIIB (Y181C) HIV-1 variant; assay type: functional, organism-based; conditions: Human immunodeficiency virus 1, IIIB
# [18] = Pharmacokinetic parameter (Absolute oral bioavailability) was evaluated in Spargue-Dawley rat when given peroral at dose 30 mg/kg; assay type: ADME, organism-based; conditions: Sprague-Dawley, in vivo
# [19] = Pharmacokinetic parameter (Cmax ) was evaluated in Spargue-Dawley rat when given peroral at dose 30 mg/kg; assay type: ADME, organism-based; set-up: dose 30 mg/kg, route oral; conditions: Sprague-Dawley, in vivo, po
# [20] = Pharmacokinetic parameter (Cmax ) was evaluated in Spargue-Dawley rat when given peroral at dose 80 mg/kg; assay type: ADME, organism-based; set-up: dose 80 mg/kg, route oral; conditions: Sprague-Dawley, in vivo, po
# [21] = Apparent terminal disposition half-life (t1/2) was evaluated in Spargue-Dawley rat when given peroral at dose 80 mg/kg; assay type: ADME, organism-based; set-up: dose 80 mg/kg, route oral; conditions: Sprague-Dawley, in vivo, po
# [22] = Pharmacokinetic parameter (tmax ) was evaluated in Spargue-Dawley rat when given peroral at dose 30 mg/kg; assay type: ADME, organism-based; set-up: dose 30 mg/kg, route oral; conditions: Sprague-Dawley, in vivo, po
# [23] = Pharmacokinetic parameter (Vss ) was evaluated in Spargue-Dawley rat when given intravenously at dose 15 mg/kg; assay type: ADME, organism-based; set-up: dose 15 mg/kg, route intravenous; conditions: Sprague-Dawley, in vivo, iv, read-out: Vss
# [24] = target: Human immunodeficiency virus type 1 reverse transcriptase (Human immunodeficiency virus 1, UniProt Q72547, Y188H); assay: Inhibitory activity against Y188H mutant HIV-1 reverse transcriptase
# [25] = Pharmacokinetic parameter (CL/F) was evaluated in Spargue-Dawley rat when given peroral at dose 80 mg/kg; assay type: ADME, organism-based; set-up: dose 80 mg/kg, route oral; conditions: Sprague-Dawley, in vivo, po
# [26] = Pharmacokinetic parameter (CL/F ) was evaluated in Spargue-Dawley rat when given peroral at dose 30 mg/kg; assay type: ADME, organism-based; set-up: dose 30 mg/kg, route oral; conditions: Sprague-Dawley, in vivo, po
# [27] = Pharmacokinetic parameter (tmax) was evaluated in Spargue-Dawley rat when given peroral at dose 80 mg/kg; assay type: ADME, organism-based; set-up: dose 80 mg/kg, route oral; conditions: Sprague-Dawley, in vivo, po
Compound,IC50 [1],IC50 [2],IC50 [4],IC50 [6],IC50 [7],IC50 [10],IC50 [11],IC50 [14],IC50 [15],IC50 [17],IC50 [24],also measured
C[C@@H](Sc1nc(N)cc(Cl)n1)c1cc2ccoc2cn1,> 0.01 µM,> 3 µM,0.025 µM,0.085 µM,> 50 µM,–,–,–,–,–,–,Inhibition [3]: 0%; Inhibition [5]: 0%
C[C@H](Sc1nc(N)cc(Cl)n1)c1cc2ccoc2cn1,0.008 µM,1.1 µM,0.022 µM,0.02 µM,0.179 µM,0.07 µM,0.017 µM,0.039 µM,0.001 µM,0.17 µM,0.077 µM,half-life [8]: 0.7 h; Tmax [9]: 1.98 min; half-life [12]: 0.78 h; bioavailability [13]: 94%; Cmax [16]: 123 µM; bioavailability [18]: 94%; Cmax [19]: 52 µM; Cmax [20]: 103 µM; half-life [21]: 1.5 h; Tmax [22]: 1.4 h; Vd [23]: 0.55 L/kg; CL/F [25]: 0.426 L/h/kg; CL/F [26]: 0.426 L/h/kg; Tmax [27]: 3.8 h
CC(Sc1nc(N)cc(Cl)n1)c1cc2ccoc2cn1 (configuration not stated),0.01 µM,2.4 µM,0.022 µM,0.024 µM,0.36 µM,0.06 µM,0.044 µM,0.044 µM,0.002 µM,0.17 µM,0.055 µM,–
CC(=O)c1ccccc1NC(C(N)=O)c1c(Cl)cccc1Cl (configuration not stated),0.08 µM,> 10 µM,–,–,–,6.5 µM,–,–,0.15 µM,> 10 µM,–,–
CC(C)Nc1cccnc1N1CCN(C(=O)c2cc3cc(NS(C)(=O)=O)ccc3[nH]2)CC1 [DELAVIRDINE],> 10 µM,–,–,–,–,> 10 µM,–,–,0.05 µM,1 µM,–,–
CCc1cc(NCc2nc3c(Cl)ccc(Cl)c3o2)c(O)nc1C [L-697661],0.43 µM,> 10 µM,–,–,–,4 µM,–,–,0.11 µM,7.7 µM,–,–
